Patent US4349545A, “Novel erythromycin a derivatives” (Roussel Uclaf, priority 1980, dated 1982)
In brackets after ≈: the same amount, converted by molar mass. Like-named read-outs stand apart in the source and are kept apart here.

Experiments:
[1] = system: Staphylococcus aureus UC 1128; assay: serial dilution liquid medium MIC, Staphylococcus aureus UC 1128 pen-resistant; format: cell-based; conditions: read-out: minimum inhibiting concentration (MIC)
Description: (§1) The method was a serial dilution of liquid medium test wherein a series of tubes were prepared containing the same amount of sterile nutritive medium and increasing amounts of the test product was distributed in each tube. The tubes were then seeded with a bacterial strain and incubated for 24 hours in an oven at 37° C. The degree of inhibition was determined by transillumination to determine the minimum inhibiting concentration (MIC) express in μg/ml and the results are reported in the following Tables.

[2] = system: Bacillus subtilis ATCC 6 633; assay: serial dilution liquid medium MIC, Bacillus subtilis ATCC 6 633; format: cell-based; conditions: ATCC6, 24 hours at 37° C., read-out: minimum inhibiting concentration (MIC)
Description: as §1

[3] = system: Staphylococcus aureus ATCC 6538; assay: serial dilution liquid medium MIC, Staphylococcus aureus ATCC 6538 Pen-Sensibles; format: cell-based; conditions: read-out: minimum inhibiting concentration (MIC)
Description: as §1

[4] = system: Streptococcus faecalis 99 F 74; assay: serial dilution liquid medium MIC, Streptococcus faecalis 99 F 74; format: cell-based; conditions: Enterococcus faecalis, 99F74, 24 hours at 37° C., read-out: minimum inhibiting concentration (MIC)
Description: as §1

[5] = system: Streptococcus pyogenes A 561; assay: serial dilution liquid medium MIC, Streptococcus pyogenes A 561; format: cell-based; conditions: A561, 24 hours at 37° C., read-out: minimum inhibiting concentration (MIC)
Description: as §1

[6] = system: Streptococcus faecalis 5432; assay: serial dilution liquid medium MIC, Streptococcus faecalis 5432; format: cell-based; conditions: Enterococcus faecalis, 24 hours at 37° C., read-out: minimum inhibiting concentration (MIC)
Description: as §1

[7] = system: Staphylococcus aureus No. 54,146; assay: In vivo activity in mice experimentally infected with Staphylococcus aureus No. 54,146; conditions: groups of 10 mice
Description: The test was effected with the compounds of the invention and erythromycin as a reference on groups of 10 mice weighing about 21 g experimentally infected with Staphylococcus aureus No. 54,146 by intraperitoneal administration of 0.5 ml of a 22 hour culture of the said organism in bouillon with a pH of 7 diluted to 1/6 with physiological water. The test compounds were orally administrated to the mice 1,5 and 24 hours after the infection and the mortality on the 8th day was determined.

[8] = system: Staphylococcus aureus exp. n° 54 146; assay: serial dilution liquid medium MIC, Staphylococcus aureus exp. n° 54 146; format: cell-based; conditions: Staphylococcus aureus exp. 54 146; 24 hours at 37° C.; read-out: minimum inhibiting concentration (MIC)
Description: as §1

[9] = system: Streptococcus pyrogenes A561; assay: In vivo activity in mice experimentally infected with Streptococcus pyrogenes A561; conditions: groups of 10 male mice
Description: In a second test, groups of 10 male mice weighing about 21 g were experimentally infected by an intraperitoneal injection of 0.5 ml of a 22 hour culture of Streptococcus pyrogenes A561 in Todd Hewitt bouillon with a pH of 7 diluted to 1/1000 with physiological water. The compounds of Examples 1 or 5 were administered orally 1,5 and 24 hours after the infection and the number of mice living on the fifth day was determined.

[10] = system: Staphylococcus aureus 1061; assay: serial dilution liquid medium MIC, Staphylococcus aureus 1061 pen-sensibles; format: cell-based; conditions: 24 hours at 37° C., read-out: minimum inhibiting concentration (MIC)
Description: as §1

[11] = system: Streptococcus faecalis 5435; assay: serial dilution liquid medium MIC, Streptococcus faecalis 5435; format: cell-based; conditions: Enterococcus faecalis, 24 hours at 37° C., read-out: minimum inhibiting concentration (MIC)
Description: as §1

[12] = UC1128, Staphylococcus aureus UC 1128 pen-resistant, 24 hours at 37° C.
[13] = ATCC6538, Staphylococcus aureus ATCC 6538 Pen-Sensibles, 24 hours at 37° C.
[14] = dose 0,5mg oral, 1,5 and 24 hours after infection
[15] = dose 0,25mg oral, 1,5 and 24 hours after infection
[16] = dose 0,75mg oral, 1,5 and 24 hours after infection
[17] = Staphylococcus aureus, ATCC6538, 24 h
[18] = dose 1mg oral, 1,5 and 24 hours after infection

SMILES	MIC [1, 12] [µg/mL]	MIC [3, 13] [µg/mL]	MIC [10] [µg/mL]	MIC [11] [µg/mL]	MIC [2] [µg/mL]	MIC [4] [µg/mL]	MIC [5] [µg/mL]	MIC [6] [µg/mL]	No. of mice living on the 8th day [7, 14] [mice]	No. of mice living on the 8th day [7, 15] [mice]	No. of mice living on the 8th day [7, 16] [mice]	MIC [8] [µg/mL]	No. of mice alive on 5th day ([9]; dose 0.1 mg oral, 1,5 and 24 hours after infection) [mice]	MIC [3, 17] [µg/mL]	MIC ([1]; Staphylococcus aureus, UC1128, 24 h) [µg/mL]	No. of mice alive on 5th day ([9]; dose 0.5 mg oral, 1,5 and 24 hours after infection) [mice]	No. of mice alive on 5th day ([9]; dose 1 mg oral, 1,5 and 24 hours after infection) [mice]	No. of mice living on the 8th day [7, 18] [mice]
CC[C@H]1OC(=O)[C@H](C)[C@@H](O[C@H]2C[C@@](C)(OC)[C@@H](O)[C@H](C)O2)[C@H](C)[C@@H](O[C@@H]2O[C@H](C)C[C@H](N(C)C)[C@H]2O)[C@](C)(O)C[C@@H](C)C(=NOCCN(C)C)[C@H](C)[C@@H](O)[C@]1(C)O [Example 5, 9-[0-(2-dimethylaminoethyl)-oxime] of erythromycin]	1 (≈ 1.22 µM)	1 (≈ 1.22 µM)	–	–	0.5 (≈ 0.61 µM)	0.05 (≈ 0.061 µM)	≤ 0.02	0.05 (≈ 0.061 µM)	8	2	10	1 (≈ 1.22 µM)	10	–	–	–	–	–
CC[C@H]1OC(=O)[C@H](C)[C@@H](O[C@H]2C[C@@](C)(OC)[C@@H](O)[C@H](C)O2)[C@H](C)[C@@H](O[C@@H]2O[C@H](C)C[C@H](N(C)C)[C@H]2O)[C@](C)(O)C[C@@H](C)C(=NOCOCc2ccccc2)[C@H](C)[C@@H](O)[C@]1(C)O [Example 7, 9-[0-benzyloxymethoxy-oxime] of erythromycin]	1 (≈ 1.15 µM)	–	–	–	0.1 (≈ 0.115 µM)	0.1 (≈ 0.115 µM)	0.05 (≈ 0.0575 µM)	0.1 (≈ 0.115 µM)	–	–	–	0.5 (≈ 0.575 µM)	–	0.2 (≈ 0.23 µM)	–	–	–	–
CC[C@H]1OC(=O)[C@H](C)[C@@H](O[C@H]2C[C@@](C)(OC)[C@@H](O)[C@H](C)O2)[C@H](C)[C@@H](O[C@@H]2O[C@H](C)C[C@H](N(C)C)[C@H]2O)[C@](C)(O)C[C@@H](C)C(=NOCCOc2ccc(Cl)cc2)[C@H](C)[C@@H](O)[C@]1(C)O [Example 2, 9-[0-(2-{4-chlorophenoxy}-ethyl)-oxime] of erythromycin]	–	–	–	–	0.2 (≈ 0.221 µM)	0.1 (≈ 0.111 µM)	≤ 0.02	0.1 (≈ 0.111 µM)	–	–	–	0.5 (≈ 0.553 µM)	–	0.1 (≈ 0.111 µM)	1 (≈ 1.11 µM)	–	–	–
CC[C@H]1OC(=O)[C@H](C)[C@@H](O[C@H]2C[C@@](C)(OC)[C@@H](O)[C@H](C)O2)[C@H](C)[C@@H](O[C@@H]2O[C@H](C)C[C@H](N(C)C)[C@H]2O)[C@](C)(O)C[C@@H](C)C(=NOCOCCOC)[C@H](C)[C@@H](O)[C@]1(C)O [Example 1, 9-[0-(2-methoxyethoxy)-methyloxime] of erythromycin]	2 (≈ 2.39 µM)	–	–	–	0.2 (≈ 0.239 µM)	0.2 (≈ 0.239 µM)	0.05 (≈ 0.0597 µM)	0.2 (≈ 0.239 µM)	10	7	–	1 (≈ 1.19 µM)	–	0.5 (≈ 0.597 µM)	–	2	10	–
CCOCCON=C1[C@H](C)C[C@@](C)(O)[C@H](O[C@@H]2O[C@H](C)C[C@H](N(C)C)[C@H]2O)[C@@H](C)[C@H](O[C@H]2C[C@@](C)(OC)[C@@H](O)[C@H](C)O2)[C@@H](C)C(=O)O[C@H](CC)[C@@](C)(O)[C@H](O)[C@H]1C [Example 3, 9-[0-(2-ethoxyethyl)-oxime] of erythromycin]	1 (≈ 1.22 µM)	0.5 (≈ 0.609 µM)	–	–	0.2 (≈ 0.244 µM)	0.2 (≈ 0.244 µM)	0.1 (≈ 0.122 µM)	0.2 (≈ 0.244 µM)	7	–	9	0.5 (≈ 0.609 µM)	–	–	–	–	–	9

More lines, main results first:

MIC [1, 12] [µg/mL]	MIC [3, 13] [µg/mL]	MIC [10] [µg/mL]	MIC [11] [µg/mL]	SMILES	MIC [2] [µg/mL]	MIC [4] [µg/mL]	MIC [5] [µg/mL]	MIC [6] [µg/mL]	No. of mice living on the 8th day [7, 14] [mice]	No. of mice living on the 8th day [7, 15] [mice]	No. of mice living on the 8th day [7, 16] [mice]	MIC [8] [µg/mL]	No. of mice alive on 5th day ([9]; dose 0.1 mg oral, 1,5 and 24 hours after infection) [mice]	MIC [3, 17] [µg/mL]	MIC ([1]; Staphylococcus aureus, UC1128, 24 h) [µg/mL]	No. of mice alive on 5th day ([9]; dose 0.5 mg oral, 1,5 and 24 hours after infection) [mice]	No. of mice alive on 5th day ([9]; dose 1 mg oral, 1,5 and 24 hours after infection) [mice]	No. of mice living on the 8th day [7, 18] [mice]
3 (≈ 3.52 µM)	2 (≈ 2.35 µM)	–	–	CCOCCOCON=C1[C@H](C)C[C@@](C)(O)[C@H](O[C@@H]2O[C@H](C)C[C@H](N(C)C)[C@H]2O)[C@@H](C)[C@H](O[C@H]2C[C@@](C)(OC)[C@@H](O)[C@H](C)O2)[C@@H](C)C(=O)O[C@H](CC)[C@@](C)(O)[C@H](O)[C@H]1C [Example 4, 9-[0-(2-ethoxyethoxymethyl)-oxime] of erythromycin]	0.5 (≈ 0.587 µM)	0.2 (≈ 0.235 µM)	0.05 (≈ 0.0587 µM)	0.5 (≈ 0.587 µM)	4	0	9	2 (≈ 2.35 µM)	–	–	–	–	–	10
1 (≈ 1.19 µM)	–	0.4 (≈ 0.478 µM)	1 (≈ 1.19 µM)	CC[C@H]1OC(=O)[C@H](C)[C@@H](O[C@H]2C[C@@](C)(OC)[C@@H](O)[C@H](C)O2)[C@H](C)[C@@H](O[C@@H]2O[C@H](C)C[C@H](N(C)C)[C@H]2O)[C@](C)(O)C[C@@H](C)C(=NOCC(OC)OC)[C@H](C)[C@@H](O)[C@]1(C)O [Example 29, 9-[0-(2,2-dimethoxyethyl)-oxime] of erythromycin]	–	0.2 (≈ 0.239 µM)	0.1 (≈ 0.119 µM)	0.4 (≈ 0.478 µM)	8	2	9	0.4 (≈ 0.478 µM)	–	–	–	–	–	10
1 (≈ 1.16 µM)	–	0.4 (≈ 0.464 µM)	1 (≈ 1.16 µM)	CC[C@H]1OC(=O)[C@H](C)[C@@H](O[C@H]2C[C@@](C)(OC)[C@@H](O)[C@H](C)O2)[C@H](C)[C@@H](O[C@@H]2O[C@H](C)C[C@H](N(C)C)[C@H]2O)[C@](C)(O)C[C@@H](C)C(=NOCCN2CCOCC2)[C@H](C)[C@@H](O)[C@]1(C)O [Example 35, 9-[O-(2-{morpholin-4-yl}-ethyl)oxime] of erythromycin]	–	0.4 (≈ 0.464 µM)	0.05 (≈ 0.058 µM)	0.2 (≈ 0.232 µM)	8	2	9	0.6 (≈ 0.696 µM)	–	–	–	–	–	10
